This note sets out measurements from patent US9873709B2 (priority 2013, dated 2018).

The subject of the assay is JAK1-dependent STAT6 phosphorylation downstream of IL-13 stimulation in TF-1 human erythroleukemia cells. The experiment in a line: cells. The following applies: TF-1, read-out: IL-13-pSTAT6 IC50.
Turning to `CC(=O)N1CC=C(c2cccn3nc(Nc4ccc(C(=O)N(C)C5CCN(C)CC5)cc4)nc23)CC1` [Example 2-344, 4-[[8-(1-acetyl-3,6-dihydro-2H-pyridin-4-yl)-[1,2,4]triazolo[1,5-a]pyridin-2-yl]amino]-N-methyl-N-(1-methyI-4-piperidyl)benzamide], the IC50 (in general, the point on the concentration scale where inhibition reaches its midpoint) stood at 1800 nM.

Regarding `CC(C)COC(=O)N1CC=C(c2cccn3nc(Nc4ccc(C(=O)N(C)C5CCN(C)CC5)cc4)nc23)CC1` [Example 2-345, isobutyl 4-[2-[4-[methyl-(1-methyl-4-piperidyl)carbamoyl]anilino]-[1,2,4]triazolo[1,5-a]pyridin-8-yl]-3,6-dihydro-2H-pyridine-1-carboxylate], the concentration for half-maximal inhibition (IC50) stood at 23.7 nM.

Consider `CN1CCC(N(C)C(=O)c2ccc(Nc3nc4c(C5=CCN(C(=O)OC6CCOC6)CC5)cccn4n3)cc2)CC1` (centres unmarked) [Example 2-346, tetrahydrofuran-3-yl 4-[2-[4-[methyl-(1-methyl-4-piperidyl)carbamoyl]anilino]-[1,2,4]triazolo[1,5-a]pyridin-8-yl]-3,6-dihydro-2H-pyridine-1-carboxylate], for which the IC50 came out at 89.1 nM.

`CN1CCC(N(C)C(=O)c2ccc(Nc3nc4c(C5=CCN(C(=O)C6CCCCC6)CC5)cccn4n3)cc2)CC1` [Example 2-348, 4-[[8-[1-(cyclohexanecarbonyl)-3,6-dihydro-2H-pyridin-4-yl]-[1,2,4]triazolo[1,5-a]pyridin-2-yl]amino]-N-methyl-N-(1-methyl-4-piperidyl)benzamide]: the IC50 stood at 34.7 nM.

`CN1CCC(N(C)C(=O)c2ccc(Nc3nc4c(C5=CCN(C(=O)[C@H]6CC[C@H](C#N)CC6)CC5)cccn4n3)cc2)CC1` [Example 2-350, 4-[[8-[1-(4-cyanocyclohexanecarbonyl)-3,6-dihydro-2H-pyridin-4-yl]-[1,2,4]triazolo[1,5-a]pyridin-2-yl]amino]-N-methyl-N-(1-methyl-4-piperidyl)benzamide]: the IC50 was 719 nM.

For the compound `CN1CCC(N(C)C(=O)c2ccc(Nc3nc4c(C5=CCN(C(=O)OCc6ccccc6)CC5)cccn4n3)cc2)CC1` [Example 2-351, benzyl 4-[2-[4-[methyl-(1-methyl-4-piperidyl)carbamoyl]anilino]-[1,2,4]triazolo[1,5-a]pyridin-8-yl]-3,6-dihydro-2H-pyridine-1-carboxylate], the IC50 worked out at 52.6 nM.

For the compound `CN1CCC(N(C)C(=O)c2ccc(Nc3nc4c(C5=CCN(C(=O)OCC6CC6)CC5)cccn4n3)cc2)CC1` [Example 2-353, cyclopropylmethyl 4-[2-[4-[methyl-(1-methyl-4-piperidyl)carbamoyl]anilino]-[1,2,4]triazolo[1,5-a]pyridin-8-yl]-3,6-dihydro-2H-pyridine-1-carboxylate], the IC50 is 32.7 nM.

In the case of `CCOC(=O)N1CC=C(c2cccn3nc(Nc4ccc(C(=O)N5CCC(c6ccccn6)CC5)cc4)nc23)CC1` [Example 2-358, ethyl 4-[2-[4-[4-(2-pyridyl)piperidine-1-carbonyl]anilino]-[1,2,4]triazolo[1,5-a]pyridin-8-yl]-3,6-dihydro-2H-pyridine-1-carboxylate], the half-inhibitory concentration (IC50) is 41.3 nM.

Regarding `CCOC(=O)N1CC=C(c2cccn3nc(Nc4ccc(C(=O)NC5CCNCC5)cc4)nc23)CC1` [Example 2-360, ethyl 4-[2-[4-(4-piperidylcarbamoyl)anilino]-[1,2,4]triazolo[1,5-a]pyridin-8-yl]-3,6-dihydro-2H-pyridine-1-carboxylate], the IC50 amounted to 411 nM.

On to `CCOC(=O)N1CC=C(c2cccn3nc(Nc4ccc(C(=O)N(C)Cc5ccncc5)cc4)nc23)CC1` [Example 2-361, ethyl 4-[2-[4-[methyl(4-pyridylmethyl)carbamoyl]anilino]-[1,2,4]triazolo[1,5-a]pyridin-8-yl]-3,6-dihydro-2H-pyridine-1-carboxylate], for which the IC50 stood at 8.9 nM.

As for `CCOC(=O)N1CC=C(c2cccn3nc(Nc4ccc(C(=O)NCCC5CCCN5)cc4)nc23)CC1` (centres unmarked) [Example 2-362, ethyl 4-[2-[4-(2-pyrrolidin-2-ylethylcarbamoyl)anilino]-[1,2,4]triazolo[1,5-a]pyridin-8-yl]-3,6-dihydro-2H-pyridine-1-carboxylate], the IC50 was 229 nM.
